In patent US6737383B1, “Herbicidal oxadiazolidines” (priority 1999, dated 2004):

Assays:
duck salad = experiment: Test B flood test duck salad; assay type: in vivo, Heteranthera limosa
Outline: (§1)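 Flood test on plants grown to the 2-leaf stage; treated plants kept in greenhouse twelve to sixteen days, then visually rated against controls on a 0 (no effect) to 10 (complete control) scale.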

smallflower flatsedge = experiment: Test B flood test smallflower flatsedge; assay type: in vivo, Cyperus difformis
Outline: as §1

crabgrass = experiment: Test B pre/postemergence crabgrass; assay type: in vivo, Digitaria sanguinalis
Outline: (§2)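 Test chemicals in a non-phytotoxic solvent mixture with surfactant were sprayed preemergence onto planted seeds and postemergence onto plants 2 to 18 cm tall (1- to 4-leaf stage). After twelve to sixteen days in a greenhouse, injury was visually rated against untreated controls from 0 (no effect) to 10 (complete control).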

blackgrass = experiment: Test B pre/postemergence blackgrass; assay type: in vivo, Alopecurus myosuroides
Outline: as §2

surinam grass = experiment: Test B pre/postemergence surinam grass; assay type: in vivo, Brachiaria decumbens
Outline: as §2

pigweed = experiment: Test B pre/postemergence pigweed; assay type: in vivo, Amaranthus retroflexus
Outline: as §2

giant foxtail = experiment: Test B pre/postemergence giant foxtail; assay type: in vivo, Setaria faberii
Outline: as §2

soybean = experiment: Test B pre/postemergence soybean; assay type: in vivo, Glycine max
Outline: as §2

purple nutsedge = experiment: Test B pre/postemergence purple nutsedge; assay type: in vivo, Cyperus rotundus
Outline: as §2

velvetleaf = experiment: Test B pre/postemergence velvetleaf; assay type: in vivo, Abutilon theophrasti
Outline: as §2

bedstraw = experiment: Test B pre/postemergence bedstraw; assay type: in vivo, Galium aparine; details: Postemergence, Rate 250 g/ha; scale of 0 to 10, 0 is no effect, 10 is complete control
Outline: as §2

[1] = Rate 62 g/ha, flood test species, Pre-emergence, visual evaluation after twelve to sixteen days
[2] = Rate 125 g/ha, under heading Pre-emergence, flood test species, visual evaluation after twelve to sixteen days
[3] = Rate 250 g/ha, Pre-emergence (flood test species), scale 0 to 10, 0 is no effect, 10 is complete control
[4] = Rate 500 g/ha, Pre-emergence section of Table B, 0 to 10 scale (0 no effect, 10 complete control)
[5] = Postemergence, Rate 62 g/ha, scale 0 to 10, 0 is no effect, 10 is complete control
[6] = Postemergence, Rate 125 g/ha, scale of 0 to 10 where 0 is no effect and 10 is complete control
[7] = Postemergence, Rate 250 g/ha, scale of 0 to 10, 0 is no effect, 10 is complete control
[8] = Postemergence, Rate 500 g/ha, scale of 0 to 10 where 0 is no effect and 10 is complete control
[9] = Preemergence, Rate 62 g/ha, scale 0 to 10 (0 no effect, 10 complete control)
[10] = Preemergence, Rate 125 g/ha, scale of 0 to 10 where 0 is no effect and 10 is complete control
[11] = Preemergence, Rate 500 g/ha, scale of 0 to 10 where 0 is no effect and 10 is complete control

CC(C)N(C(=O)n1oc(=O)n(CC2=NOCCC2)c1=O)c1ccc(F)cc1 [Compound 601]
Plant response rating, Ducksalad (0 to 10 scale, 0 is no effect, 10 is complete control) (duck salad; [1]): 0 | Ducksalad plant response rating (0 to 10 scale, 0 is no effect, 10 is complete control) (duck salad; [2]): 0 | Ducksalad plant response rating (duck salad; [3]): 0 | Ducksalad plant response rating (duck salad; [4]): 0 | Plant response rating, S. Flatsedge (0 to 10 scale, 0 is no effect, 10 is complete control) (smallflower flatsedge; [1]): 0 | S. Flatsedge plant response rating (0 to 10 scale, 0 is no effect, 10 is complete control) (smallflower flatsedge; [2]): 0 | S. Flatsedge plant response rating (smallflower flatsedge; [3]): 0 | S. Flatsedge plant response rating (smallflower flatsedge; [4]): 0 | Plant response rating, Crabgrass (crabgrass; [5]): 3 | Plant response rating, Crabgrass (crabgrass; [6]): 4 | Crabgrass plant response rating (crabgrass; [7]): 5 | Plant response rating, Crabgrass (crabgrass; [8]): 9 | Crabgrass plant response rating (crabgrass; [9]): 6 | Crabgrass plant response rating (crabgrass; [10]): 9 | Plant response rating, Crabgrass (crabgrass; [11]): 10 | Blackgrass plant response rating (blackgrass; [7]): 7 | Plant response rating, Blackgrass (blackgrass; [8]): 8 | Blackgrass plant response rating (blackgrass; [10]): 8 | Blackgrass plant response rating (0 to 10 scale) (blackgrass; Preemergence, Rate 250 g/ha): 8 | Blackgrass plant response rating (blackgrass; [11]): 9 | Plant response rating, B. signalgrass (surinam grass; [5]): 0 | Plant response rating, B. signalgrass (surinam grass; [6]): 0 | B. signalgrass plant response rating (surinam grass; [7]): 4 | Plant response rating, B. signalgrass (surinam grass; [8]): 7 | B. signalgrass plant response rating (surinam grass; [9]): 3 | B. signalgrass plant response rating (surinam grass; [10]): 7 | B. signalgrass plant response rating (0 to 10 scale, 0 is no effect, 10 is complete control) (surinam grass; Preemergence, Rate 250 g/ha): 8 | B. signalgrass plant response rating (surinam grass; [11]): 8 | Plant response rating, Redroot pigweed (pigweed; [5]): 0 | Plant response rating, Redroot pigweed (pigweed; [6]): 2 | Redroot pigweed plant response rating (pigweed; [7]): 2 | Plant response rating, Redroot pigweed (pigweed; [8]): 4 | Redroot pigweed plant response rating (pigweed; [9]): 4 | Redroot pigweed plant response rating (pigweed; [10]): 10 | Plant response rating, Redroot pigweed (pigweed; [11]): 10 | Plant response rating, Giant foxtail (giant foxtail; [5]): 7 | Plant response rating, Giant foxtail (giant foxtail; [6]): 7 | Giant foxtail plant response rating (giant foxtail; [7]): 7 | Plant response rating, Giant foxtail (giant foxtail; [8]): 9 | Giant foxtail plant response rating (giant foxtail; [9]): 10 | Giant foxtail plant response rating (giant foxtail; [10]): 10 | Plant response rating, Giant foxtail (giant foxtail; [11]): 10 | Plant response rating, Soybean (soybean; [5]): 4 | Plant response rating, Soybean (soybean; [6]): 4 | Soybean plant response rating (soybean; [7]): 5 | Plant response rating, Soybean (soybean; [8]): 6 | Soybean plant response rating (soybean; [9]): 0 | Soybean plant response rating (soybean; [10]): 0 | Plant response rating, Soybean (soybean; [11]): 1 | Plant response rating, Nutsedge (purple nutsedge; [5]): 0 | Plant response rating, Nutsedge (purple nutsedge; [6]): 0 | Nutsedge plant response rating (purple nutsedge; [7]): 0 | Plant response rating, Nutsedge (purple nutsedge; [8]): 0 | Nutsedge plant response rating (purple nutsedge; [9]): 0 | Nutsedge plant response rating (purple nutsedge; [10]): 0 | Plant response rating, Velvetleaf (velvetleaf; [5]): 0 | Plant response rating, Velvetleaf (velvetleaf; [6]): 0 | Velvetleaf plant response rating (velvetleaf; [7]): 0 | Plant response rating, Velvetleaf (velvetleaf; [8]): 4 | Velvetleaf plant response rating (velvetleaf; [9]): 1 | Velvetleaf plant response rating (velvetleaf; [10]): 4 | Plant response rating, Velvetleaf (velvetleaf; [11]): 7 | Bedstraw plant response rating (bedstraw): 3
